The target of assay [1] is T1, MC3-R (Homo sapiens, UniProt P41968). Briefly: Competitive inhibition binding assay, 125I-NDP-α-MSH, MC3-R. Also on record: expressed in transfected cells. An outline of the steps:
(§1)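 Membranes from hMC3-R, hMC4-R or hMC5-R cells, or B-16 mouse melanoma cells (MC1-R), were incubated 90 min at room temperature with 0.4 nM 125I-NDP-α-MSH in HEPES pH 7.2 with Mg2+/Ca2+/K+, and test compound generally at 1 μM. Filter-bound radioactivity was gamma counted. Specific binding was defined with 1 μM α-MSH; triplicate means.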

The target of assay [2] is T2, MC4-R (Homo sapiens, UniProt P32245). Briefly: Competitive inhibition binding assay, 125I-NDP-α-MSH, MC4-R. Also on record: expressed in transfected cells. Put shortly: as §1
Assay [3] has as its target T3, MC5-R (Homo sapiens, UniProt P33032). Put plainly: Competitive inhibition binding assay, 125I-NDP-α-MSH, MC5-R. Also on record: expressed in transfected cells. An outline of the steps: as §1
Assay [4] has as its target T4, MC1-R (B-16 mouse melanoma cells) (Mus musculus, UniProt Q01727).
T4 construct: B-16 mouse melanoma cells (containing MC1-R); endogenous in cells; host or cells: B-16 mouse melanoma cells
Briefly: Competitive inhibition binding assay, 125I-NDP-α-MSH, MC1-R. An outline of the steps:
as §1

Assay [5] concerns the target T2, MC4-R. Put plainly: Ki determination by the method of Example 4, MC4-R. It counts as binding. Also on record: expressed in transfected cells; host or cells: HEK-293. Particulars: read-out: Ki (nM) MC4-R. As to the method: (§2) The Ki (nM) of certain peptidomimetics were determined, as was the agonist/antagonist status with respect to MC4-R, Functional evaluation of compounds at melanocortin receptors was performed by measuring the accumulation of intracellular cAMP in HEK-293 cells expressing MC3-R, MC4-R or MC5-R, and in B-16 mouse melanoma cells (containing MC1-R). Antagonistic activity was determined by measuring the inhibition of α-MSH-induced cAMP levels following exposure to the compounds. Cells, suspended in Earle's Balanced Salt Solution containing 10 mM HEPES, pH 7.5, 5 mM MgCl2, 1 mM glutamine, 0.1% albumin and 0.6 mM 3-isobutyl-1-methyl-xanthine, a phosphodiesterase inhibitor, were plated in 96 well plates at a density of 0.5×10^5 cells per well. Cells were incubated with the test compounds in the presence or absence of α-MSH for 1 hour at 37° C. cAMP levels were measured by EIA (Amersham) in the cell lysates. Data analysis and EC50 values were determined using nonlinear regression analysis with Prism Graph-Pad software.

The target in assay [6] is T3, MC5-R. Briefly: Ki determination by the method of Example 4, MC5-R. Format: binding. Details: expressed in transfected cells; host or cells: HEK-293. As to the method:
as §2

In assay [7] the target is T4, MC1-R (B-16 mouse melanoma cells). Briefly: Ki determination by the method of Example 4, MC1-R. Format: binding. As to the method: as §2
The target in assay [8] is T1, MC3-R. Briefly: Ki determination by the method of Example 4, MC3-R. Details: expressed in transfected cells; host or cells: HEK-293. It counts as binding. As to the method: as §2
The target in another assay is T5, MC4-R (HEK-293 cells) (Homo sapiens, UniProt P32245).
T5 construct: expressed in transfected cells; host or cells: HEK-293
Briefly: cAMP assay for agonist/antagonist status, MC4-R. It counts as cell-based. As to the method: as §2

A further assay has as its target T6, MC5-R (HEK-293 cells) (Homo sapiens, UniProt P33032).
T6 construct: expressed in transfected cells; host or cells: HEK-293
Briefly: cAMP assay for agonist/antagonist status, MC5-R. Format: cell-based. As to the method: as §2

In assay [9] the target is T4, MC1-R (B-16 mouse melanoma cells). Briefly: cAMP assay for agonist/antagonist status, MC1-R. Format: cell-based. As to the method: as §2
[10] abbreviates: bound in μM, read-out: Ki MC1-R.
Where [11] appears, read: bound in μM, read-out: Ki MC3-R.
[12] abbreviates: 1 μM compound, inhibition of 125I-NDP-α-MSH binding, mean of triplicates, results less than 0% reported as 0%.

Where two headings read alike, the source gives them in different places.

T3 sequence (P33032 whole entry): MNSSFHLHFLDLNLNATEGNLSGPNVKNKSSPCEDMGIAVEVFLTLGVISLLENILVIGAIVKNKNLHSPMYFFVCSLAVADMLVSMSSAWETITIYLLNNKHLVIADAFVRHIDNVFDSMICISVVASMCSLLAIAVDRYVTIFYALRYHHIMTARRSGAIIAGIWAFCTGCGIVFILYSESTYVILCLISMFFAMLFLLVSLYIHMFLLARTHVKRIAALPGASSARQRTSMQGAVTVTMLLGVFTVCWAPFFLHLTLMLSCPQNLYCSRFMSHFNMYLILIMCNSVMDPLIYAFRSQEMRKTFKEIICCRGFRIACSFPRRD
T4 sequence (Q01727 whole entry): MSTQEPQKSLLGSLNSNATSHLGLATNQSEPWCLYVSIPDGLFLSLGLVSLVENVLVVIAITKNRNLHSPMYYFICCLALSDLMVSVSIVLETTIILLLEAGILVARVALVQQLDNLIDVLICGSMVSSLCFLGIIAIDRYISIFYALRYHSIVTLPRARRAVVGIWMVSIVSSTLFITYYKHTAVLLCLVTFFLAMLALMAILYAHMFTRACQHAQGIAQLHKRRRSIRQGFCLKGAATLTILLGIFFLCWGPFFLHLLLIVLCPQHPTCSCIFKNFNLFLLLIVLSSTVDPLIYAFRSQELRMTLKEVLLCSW
T2 sequence (P32245 whole entry): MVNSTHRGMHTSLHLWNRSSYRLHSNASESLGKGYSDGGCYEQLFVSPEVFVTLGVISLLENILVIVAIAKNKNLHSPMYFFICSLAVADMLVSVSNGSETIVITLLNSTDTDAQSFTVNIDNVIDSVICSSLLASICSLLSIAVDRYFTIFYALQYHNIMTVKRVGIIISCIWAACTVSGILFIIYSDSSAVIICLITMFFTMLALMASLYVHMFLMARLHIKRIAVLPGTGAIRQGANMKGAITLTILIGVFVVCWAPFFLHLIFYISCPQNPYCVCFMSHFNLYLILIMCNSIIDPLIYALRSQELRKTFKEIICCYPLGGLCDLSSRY
T1 sequence (P41968 whole entry): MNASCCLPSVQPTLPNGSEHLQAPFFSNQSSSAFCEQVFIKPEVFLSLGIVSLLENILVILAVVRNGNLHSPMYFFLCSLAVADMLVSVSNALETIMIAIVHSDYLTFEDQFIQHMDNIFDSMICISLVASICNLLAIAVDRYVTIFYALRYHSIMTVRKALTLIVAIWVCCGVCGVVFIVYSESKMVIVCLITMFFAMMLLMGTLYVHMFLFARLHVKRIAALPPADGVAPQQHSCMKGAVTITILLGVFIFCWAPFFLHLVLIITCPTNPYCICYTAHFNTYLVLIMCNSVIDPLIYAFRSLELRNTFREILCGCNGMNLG
T6 sequence (P33032 whole entry): as the sequence (P33032 whole entry) above
T5 sequence (P32245 whole entry): as the sequence (P32245 whole entry) above

`N=C(N)NCCCC1C(=O)N(CCc2c[nH]c3ccccc23)CCN1C(=O)C(Cc1ccc(Cl)cc1)NC(=O)C1Cc2ccccc2CN1` (stereo not shown) [Example 14]: the inhibition at 1 µM on MC3-R [1] worked out at 88%; at MC4-R [2], 99%; on MC5-R [3], 89%; in assay [4], 96%. Besides, the Ki was 2 nM on MC4-R [5], 52 nM on MC5-R [6] (read-out: Ki (nM) MC5-R), 3 nM in assay [7] (read-out: Ki (nM) MC1-R) and 77 nM at MC3-R [8] (read-out: Ki (nM) MC3-R).

As for `N=C(N)NCCCC1C(=O)N(CCc2c[nH]c3ccccc23)CCN1C(=O)C(Cc1ccc(Cl)cc1)NC(=O)C(COCc1ccccc1)NC(=O)CCCCCCN` (stereo not shown) [Example 17], the inhibition at 1 µM on MC3-R [1] was determined as 97%; at MC4-R [2], 99%; on MC5-R [3], 94%; in assay [4] it was 96%. Moreover, the Ki came to 2 nM at MC4-R [5], 32 nM on MC5-R [6] (read-out: Ki (nM) MC5-R), 4 nM in [7] (read-out: Ki (nM) MC1-R) and 17 nM on MC3-R [8] (read-out: Ki (nM) MC3-R).

Consider `NCCCC[C@H]1C(=O)N(CCc2ccc3ccccc3c2)CCN1C(=O)[C@@H](Cc1ccc(Cl)cc1Cl)NC(=O)[C@@H]1CC[C@H](c2ccccc2)N1` [Example 26], for which the Ki is 50 nM on MC4-R [5], 789 nM at MC5-R [6] (read-out: Ki (nM) MC5-R), > 1000 nM in assay [7] (setting [10]) and > 1000 nM at MC3-R [8] (setting [11]).

`NC(COCc1ccccc1)C(=O)NC(Cc1ccc(Cl)cc1Cl)C(=O)N1CCN(CCc2ccc3ccccc3c2)C(=O)C1CCCNC1=NCCN1` (stereo not shown) [Example 48]: the inhibition at 1 µM at MC3-R [1] stood at 60%; on MC4-R [2], 99%; on MC5-R [3] it was 75%; in assay [4] it was 63%. The inhibition constant (Ki) was 4 nM at MC4-R [5], 104 nM at MC5-R [6] (read-out: Ki (nM) MC5-R), > 1000 nM in assay [7] (setting [10]) and > 1000 nM on MC3-R [8] (setting [11]).

In the case of `N=C(N)NCCC[C@H]1C(=O)N(CCc2ccc3ccccc3c2)CCN1C(=O)[C@@H](Cc1ccc(Cl)cc1Cl)NC(=O)[C@@H](N)COCc1ccccc1` [Example 53], at MC3-R [1] (setting [12]), the “Inhibition at 1 μM MC3-R” value was 93%. In addition, the “Inhibition at 1 μM MC4-R” value on MC4-R [2] (setting [12]) is reported as 99%. The “Inhibition at 1 μM MC5-R” value at MC5-R [3] (setting [12]) is 96%. The “Inhibition at 1 μM MC1-R” value in assay [4] (setting [12]) is listed as 81%. Moreover, the “agonist/antagonist status as to MC4-R” value at MC4-R (HEK-293 cells) was “agonist”. In addition, the “agonist/antagonist status as to MC5-R” value on MC5-R (HEK-293 cells) is recorded as “agonist”. In addition, in assay [9], the “agonist/antagonist status as to MC1-R” value is listed as “agonist”.

In the case of `NCCCCC1C(=O)N2C(COc3ccc4ccccc4c3)CCC2N1C(=O)C(Cc1ccc(Cl)cc1)NC(=O)C1Cc2ccccc2CN1` (stereo not shown) [Example 80], the Ki at MC3-R [8] (setting [11]) was > 1000 nM.

Regarding `CCCCCCC(=O)NC(COCc1ccccc1)C(=O)NC(Cc1ccc(Cl)cc1)C(=O)N1C(CCCCN)C(=O)N2C(COc3ccc4ccccc4c3)CCC21` (stereo not shown) [Example 81], the figures for the inhibition constant (Ki) on MC5-R [6] (read-out: Ki (nM) MC5-R) and at MC3-R [8] (read-out: Ki (nM) MC3-R) were 134 nM and 209 nM, respectively.

With `N=C(N)NCCCC1C(=O)N2C(COc3ccc4ccccc4c3)CCC2N1C(=O)C(Cc1ccccc1)NC(=O)C(N)Cc1cnc[nH]1` (stereo not shown) [Example 97], the Ki at MC4-R [5] is 226 nM; at MC5-R [6] (bound in μM, read-out: Ki MC5-R), > 1000 nM; in [7] (read-out: Ki (nM) MC1-R), 1 nM; on MC3-R [8] (setting [11]) it was > 1000 nM.

Turning to `N=C(N)NCCCC1C(=O)N2C(COc3ccc4ccccc4c3)CCC2N1C(=O)C(Cc1ccccc1Cl)NC(=O)C(N)COCc1ccccc1` (stereo not shown) [Example 99], the inhibition constant Ki at MC3-R [8] (setting [11]) was > 1000 nM.

A word on the inhibition: it is the share of the control response that was lost under treatment. A low value points to a response near the control. The term Ki denotes a dissociation constant, usually derived from enzyme kinetics or from competition with a known ligand. Usually Inhibition stands for the share of the control response that was lost under treatment. Low readings indicate little suppression, high ones strong suppression.

The values are drawn from patent US7807678B2, “Peptidomimetics of biologically active metallopeptides” (Palatin Technologies, Inc., priority 2001, dated 2010).
